Calls of active or inactive are those of the source. The rule behind the calls is not given here.
Assays:
[1] = Aggregation property of the compound in potassium phosphate buffer assessed as particle size at 10 uM by DLS method; type: physicochemical
[2] = Drug uptake mitochondria of in human HeLa cells at 10 uM after 1 hr by Mito tracker red-based confocal microscopic analysis; type: ADME
[3] = Dark toxicity against human HeLa cells assessed as reduction in cell viability after 48 hrs by MTT assay; type: cell-based
[4] = tested on: HeLa; experiment: Phototoxicity against human HeLa cells assessed as reduction in cell viability preincubated for 1 hr followed by LED light irradiation at 8 +/- 0.5 mW/cm2 for 15 mins and measured after 48 hrs by MTT assay; type: functional, cell-based; settings: light or radiation study
[5] = Drug uptake lysosome of in human HeLa cells at 10 uM after 1 hr by Lyso tracker red-based confocal microscopic analysis; type: ADME, subcellular
[6] = Induction of singlet oxygen production irradiated with 425 to 479 nm Nd:YAG laser light measured after 100 nanoseconds post irradiation; type: functional
[7] = Drug uptake in human HeLa cells at 20 uM by fluorescence assay; type: ADME, cell-based; settings: TDE = time-dependent effect
[8] = Drug uptake in human HeLa cells at 20 uM at 37 degC after 1 hr by fluorescence assay; type: ADME, cell-based
[9] = Drug uptake in human HeLa cells at 20 uM after 1 hr in presence of sucrose by fluorescence assay; type: ADME, cell-based
[10] = Drug uptake in human HeLa cells at 20 uM after 1 hr in presence of lipid raft inhibitor methyl-beta-cyclodextrin by fluorescence assay; type: ADME, cell-based
[11] = Drug uptake in human HeLa cells at 20 uM at 4 degC after 1 hr by fluorescence assay; type: ADME, cell-based

SMILES	Activity [1]	Drug uptake [2]	IC50 at 48 h [3] [µM]	IC50 [4] [µM]	Drug uptake [5]	Activity [6]	Drug uptake [7]	Drug uptake [8]	Drug uptake [9]	Drug uptake [10]	Drug uptake [11]
CC(C)(C)OC(=O)/C(C#N)=C/c1ccc(-c2ccc(-c3ccc(N(c4ccccc4)c4ccccc4)cc3)s2)s1	Not Active	Not Active	> 100	> 100	Not Active						
O=Cc1ccc(-c2ccc(-c3ccc(N(c4ccccc4)c4ccccc4)cc3)s2)s1	Not Active	Not Active	88.9	9.5	Not Active						
COC(=O)/C(C#N)=C/c1ccc(-c2ccc(-c3ccc(N(c4ccccc4)c4ccccc4)cc3)s2)s1	Not Active	Not Active	> 100	> 100	Not Active						
N#C/C(=C\c1ccc(-c2ccc(-c3ccc(N(c4ccccc4)c4ccccc4)cc3)s2)s1)C(=O)O	175 nm	Active	21.9	0.21	Active	Active	Tde	Active	Not Active	Not Active	Not Active
N#C/C(=C\c1ccc(-c2ccc(-c3ccc(N(c4ccccc4)c4ccccc4)cc3)s2)s1)C(N)=O	1175 nm	Active	63.1	8.8	Active			Active	Not Active	Active	Not Active

— ChEMBL document CHEMBL4308911, “Elucidating the mode of action for thiophene-based organic D-π-A sensitizers for use in photodynamic therapy” (Bioorg Med Chem, 2019)
